Laboratory results taken from patent US5869662A, “Photochromic benzopyran compounds” (Vision-Ease Lens, Inc., priority 1997, dated 1999).

Assays:
[1] = Maximum absorption wavelength (λmax) of the activated form in chloroform under ultraviolet irradiation; type: physicochemical; conditions: UV irradiation, 350 nm
Method: Two grams of the propargyl alcohol obtained in Step 1 were mixed with 1.25 grams of 2-hydroxydibenzofuran in 200 milliliters of benzene. Twenty milligrams of p-toluenesultonic acid were then added and the mixture was stirred under reflux for 8 hours. The resultant mixture was cooled and washed with 10% aqueous sodium hydroxide. The organic solvent (benzene) was removed using a rotary evaporator. The resulting material was dissolved in hexane and the resulting hexane solution was cooled to yield a recrystallized product.
The recrystallized product formed in Step 2 of Example 1; the 3-(4-biphenytyl)-3-phenyl-8-methoxy-3H-naphtho[2,1b]pyran formed in Comparative Example 1; and a purchased sample of 3,3-diphenyl-3H-naphtho-[2,1b]pyran (identified as Comparative Example 2) were each individually dissolved in chloroform in separate containers. These chloroform dissolved substances were then irradiated with ultraviolet light with a maximum wavelength of 350 manometers and measured for maximum absorption wavelength, λmax. The fade time, T1/2, was then determined for each of the irradiated substances. […] The maximum absorption wavelength and fade time determined for the irradiated substances of Example 1 and Comparative Examples 1-2 are presented in Table 1: […]

[2] = Becker patent; cited from earlier work
[3] = Fade time (T1/2) of the activated form in chloroform at room temperature; type: physicochemical; conditions: room temperature (72° F.), absorbance of activated form falls to one half of maximum after isolation from UV
Method: These chloroform dissolved substances were then irradiated with ultraviolet light with a maximum wavelength of 350 manometers and measured for maximum absorption wavelength, λmax. The fade time, T1/2, was then determined for each of the irradiated substances. The fade time for of the chloroform-dissolved substances is defined as the time interval, at room temperature (72° F.), for the absorbance of the activated form of each chloroform-dissolved substance to decrease to one half of the maximum absorbance, after the substance is isolated from the activating source of ultraviolet light.

maximum absorption wavelength, λmax (only or shorter-wavelength maximum) [1] | fade time, T1/2 [3] | SMILES | photochromic at room temperature [2]
484 nanometers | – | COc1ccc2c3c(ccc2c1)OC(c1ccccc1)(c1ccc(-c2ccccc2)cc1)C=C3 (stereo not shown) [Comparative Example 1, 3-(4-biphenylyl)-3-phenyl-8-methoxy-3H-naphtho[2,1b]pyran] | –
434 nanometers | 13 s | C1=CC(c2ccccc2)(c2ccccc2)Oc2ccc3ccccc3c21 [Comparative Example 2, 3,3-diphenyl-3H-naphtho-[2,1b]pyran] | photochromic at room temperature
